Data from patent US20090082329A1 (AVENTIS PHARMA S.A., priority 2006, published 2009).
Read-outs that look alike come from different tables or passages of the source.

Columns and labels:
[1] = molecular target: T1, human cytoplasmic domain of IGF-1R (Homo sapiens, UniProt P08069); assay: Kinase IGF-1R test: inhibition of autophosphorylation of the enzyme (HTRF); type: biochemical; conditions: ATP 120 μM
T1 construct: The human cytoplasmic domain of IGF-1R was cloned by fusion with glutathione S-transferase (GST); made in house; host or cells: SF21 insect cells (baculovirus, pFastBac-GST)
T1 sequence (P08069 960-1367 limits assumed): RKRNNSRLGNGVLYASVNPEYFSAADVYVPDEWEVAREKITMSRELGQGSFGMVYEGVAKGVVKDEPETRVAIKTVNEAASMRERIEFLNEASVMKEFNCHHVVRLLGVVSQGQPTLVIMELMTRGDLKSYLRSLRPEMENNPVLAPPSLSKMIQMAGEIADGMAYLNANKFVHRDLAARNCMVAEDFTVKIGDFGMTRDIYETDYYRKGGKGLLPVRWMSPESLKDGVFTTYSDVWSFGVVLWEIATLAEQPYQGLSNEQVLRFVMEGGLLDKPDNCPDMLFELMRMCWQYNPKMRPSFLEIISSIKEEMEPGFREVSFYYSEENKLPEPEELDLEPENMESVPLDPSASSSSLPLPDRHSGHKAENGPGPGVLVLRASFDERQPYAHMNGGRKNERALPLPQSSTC
Description: A) Experimental Protocol for the Kinase IGF-1R Test:
The inhibitory activity of the compounds on IGF1R is determined by measuring the inhibition of autophosphorylation of the enzyme using a time-resolved fluorescence test (HTRF). The human cytoplasmic domain of IGF-1R was cloned by fusion with glutathione S-transferase (GST) in the baculovirus expression vector pFastBac-GST. The protein is expressed in the SF21 cells and purified to about 80% homogeneity. For the enzymatic test, the test compound at 10 mM dissolved in DMSO is diluted in ⅓ steps in a 50 mM Hepes, pH 7.5, 5 mM MnCl2, 50 mM NaCl, 3% Glycerol, 0.025% Tween 20 buffer. To measure the inhibition, the successive dilutions of the compound are preincubated for 30 minutes and 90 minutes in the presence of 5 nM of enzyme, the final DMSO concentration not exceeding 1%. The enzymatic reaction is initiated to have a final ATP concentration of 120 μM, and is stopped after 5 minutes by addition of 100 mM Hepes, pH 7.0 buffer containing 0.4 M of potassium fluoride, 133 mM EDTA, 0.1% BSA, the XL665-labelled antibody anti-GST and the anti-phosphotyrosine antibody conjugated to europium cryptate Eu—K (Cis-Bio Int.). The characteristics of the two fluorophores, XL-665 and Eu—K, are available in G. Mathis et al., Anticancer Research, 1997, 17, pages 3011-3014. The energy transfer between the excited europium cryptate to the acceptor XL665 is proportional to the degree of autophosphorylation of IGF-1R. The specific long-lasting signal of XL-665 is measured in a GENios Pro TECAN plate counter. The inhibition of autophosphorylation of IGF-1R at time 30 minutes and 90 minutes with the test compounds of the invention is calculated relative to a 1% in DMSO control, whose activity is measured in the absence of compound. The curve representing the percentage of inhibition as a function of the log of the concentration is established to determine the concentration corresponding to 50% inhibition (IC50),

IGF-1R in MCF7 cells = IGF-1R in MCF7 cells (Homo sapiens, UniProt P08069); assay: Autophosphorylation of IGF-1R in MCF7 cells after stimulation with IGF-1 (ELISA); type: cell-based; design: endogenous in cells; host or cells: MCF-7 cells; conditions: MCF-7 cells, compound added one hour before stimulation with IGF1; read-out: Test B IC50
Chain of IGF-1R in MCF7 cells (P08069 31-1367): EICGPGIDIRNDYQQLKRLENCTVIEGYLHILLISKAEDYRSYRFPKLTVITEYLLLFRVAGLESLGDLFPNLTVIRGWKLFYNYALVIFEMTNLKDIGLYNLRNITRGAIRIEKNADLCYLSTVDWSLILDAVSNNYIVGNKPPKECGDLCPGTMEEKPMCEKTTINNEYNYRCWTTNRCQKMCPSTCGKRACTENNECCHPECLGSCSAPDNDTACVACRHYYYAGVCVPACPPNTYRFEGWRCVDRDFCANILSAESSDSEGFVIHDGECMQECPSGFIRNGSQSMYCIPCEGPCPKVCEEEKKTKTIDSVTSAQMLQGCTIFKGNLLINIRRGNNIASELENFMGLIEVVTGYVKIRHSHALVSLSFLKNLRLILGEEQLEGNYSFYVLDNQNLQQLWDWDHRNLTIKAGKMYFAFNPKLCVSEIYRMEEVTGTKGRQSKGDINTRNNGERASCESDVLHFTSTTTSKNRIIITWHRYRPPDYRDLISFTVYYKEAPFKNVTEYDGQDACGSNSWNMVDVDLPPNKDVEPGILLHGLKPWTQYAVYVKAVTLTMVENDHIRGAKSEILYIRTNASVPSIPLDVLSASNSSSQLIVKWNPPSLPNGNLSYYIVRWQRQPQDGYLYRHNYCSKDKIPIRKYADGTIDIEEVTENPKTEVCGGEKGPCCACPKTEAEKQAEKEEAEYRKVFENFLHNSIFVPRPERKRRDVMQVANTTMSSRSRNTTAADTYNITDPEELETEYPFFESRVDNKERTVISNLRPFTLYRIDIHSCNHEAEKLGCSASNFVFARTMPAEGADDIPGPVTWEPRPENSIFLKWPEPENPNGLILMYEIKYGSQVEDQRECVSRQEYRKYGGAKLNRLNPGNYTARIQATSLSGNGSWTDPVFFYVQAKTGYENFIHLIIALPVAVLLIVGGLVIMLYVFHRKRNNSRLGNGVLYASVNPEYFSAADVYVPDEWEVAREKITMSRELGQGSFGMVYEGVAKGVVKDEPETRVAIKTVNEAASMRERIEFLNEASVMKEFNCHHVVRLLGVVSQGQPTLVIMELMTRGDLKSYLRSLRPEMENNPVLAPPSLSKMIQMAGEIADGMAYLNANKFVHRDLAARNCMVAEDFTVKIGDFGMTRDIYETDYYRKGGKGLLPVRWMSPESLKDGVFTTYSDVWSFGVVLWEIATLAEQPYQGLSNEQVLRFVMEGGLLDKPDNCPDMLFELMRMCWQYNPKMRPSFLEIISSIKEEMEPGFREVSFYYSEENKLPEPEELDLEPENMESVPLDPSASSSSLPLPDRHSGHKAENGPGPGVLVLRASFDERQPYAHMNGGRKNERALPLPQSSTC
Description: B) Measurement of the Autophosphorylation of IGF-1R in MCF7 Cells after Stimulation with IGF-1
Cell Culturing and Execution of the Test:
The autophosphorylation of IGF1R in the IGF1-induced cells is evaluated by means of an ELISA technique (Enzyme Linked ImmunoSorbent Assay). The MCF-7 are seeded at 60 000 cells per well in 6-well plates and incubated at 37° C., 5% CO2 in medium containing 10% serum. After one night in 10% serum, the cells are deprived of serum for 24 hours. The compounds are added to the medium one hour before stimulation with IGF1. After 10 minutes of stimulation with IGF1, the cells are lysed with a buffer (Hepes 50 mM pH 7.6, Triton X100 1%, orthovanadate 2 mM, protease inhibitor cocktail). The cell lysates are incubated on a 96-well plate precoated with an anti-IGF1R antibody, followed by incubation with an anti-phosphotyrosine antibody coupled to the enzyme peroxidase. The level of peroxidase activity (measured by OD with a luminescent substrate) reflects the phosphorylation status of the receptor.
(§1) (i) The tests are performed in duplicate and the mean of the two tests is calculated.
(§2) (ii) The value of the signal of the maximum response is calculated from the positive control: cells stimulated with IGF1 without compound.
(§3) (iii) Value of the signal of the minimum response is calculated from the negative control: cells not stimulated with IGF1 without compound.
(§4) (iv) By using these values as maximum (100%) and minimum (0%), respectively, the data were normalized so as to give a percentage of the maximum response.
(§5) (v) A curve of dose response is plotted and the IC50 (the concentration of which the compound induces a 50% decrease in the signal) of the compound is calculated by non-linear regression analysis.

MEF-IGF1R cells = assay: Proliferation/viability of MEF-IGF1R (Thymidine [14C] incorporation); type: cell-based; conditions: rhIGF1 100 ng/mL, incubation 72 hours, read-out: Test C IC50
Description: C) Measurement of the Proliferation/Viability of MEF-IGF1R
Cell culture: the MEF-IGF1R cells (stable clone of cells transfected with the receptor hIGF-1R) are cultured at 37° C. under 5% CO2 in EMEM medium containing 10% FCS.
Test procedure: the cells are seeded at 5000 cells per well in 96-well Cytostar plates (Amersham) with 0.2 mL of EMEM culture medium at 37° C. for 18 hours. The cells are then washed twice with EMEM medium and left to culture without serum for 24 hours. The compounds are then added at various concentrations in the presence of rhIGF1 (100 ng/mL) and 0.1 μCi of Thymidine [^14C] (specific activity ˜50 mCi/mmol) to give 0.2 mL of volume per well. After incubation for 72 hours in the presence of the compound, at 37° C. under 5% CO2, the incorporation of Thymidine [^14C] is measured by counting the radioactivity on a Microbeta trilux counter (Perkin-Elmer). The IC50 is determined from 10 increasing concentrations of the compound.
as §1, §2, §3, §4, §5

[2] = preincubation 30 minutes with 5 nM enzyme, read-out: Test A 30′ IC50
[3] = preincubation 90 minutes with 5 nM enzyme, read-out: Test A 90′ IC50

| SMILES | IC50 [1, 2] | IC50 (IGF-1R in MCF7 cells) | IC50 [1, 3] | IC50 (MEF-IGF1R cells) |
| --- | --- | --- | --- | --- |
| CC1(C)C(=O)N(c2ccc(SC(F)(F)F)cc2)C(=O)N1Cc1ccnc(NC(=O)c2cc(Cl)cc(Cl)c2)c1 [Example 6, 3,5-dichloro-N-{4-[(5,5-dimethyl-2,4-dioxo-3-{4-[(trifluoromethyl)thio]phenyl}imidazolidin-1-yl)methyl]pyridin-2-yl}benzamide] | > 0.1 µM | > 0.1 µM |  | < 0.01 µM |
| Cc1ccc(F)c(C(=O)Nc2cc(CN3C(=O)N(c4ccc(SC(F)(F)F)cc4)C(=O)C3(C)C)ccn2)c1Cl [Example 7, 2-chloro-N-{4-[(5,5-dimethyl-2,4-dioxo-3-{4-[(tri-fluoromethyl)thio]phenyl}imidazolidin-1-yl)methyl]pyridin-2-yl}-6-fluoro-3-methylbenzamide] | > 0.1 µM | > 0.1 µM | 0.01 to 0.1 µM | 0.01 to 0.1 µM |
| CC1(C)C(=O)N(c2ccc(SC(F)(F)F)cc2)C(=O)N1Cc1ccnc(NC(=O)NCCCN2CCCC2)c1 [Example 18, 1-{4-[(5,5-dimethyl-2,4-dioxo-3-{4-[(trifluoro-methyl)thio]phenyl}imidazolidin-1-yl)methyl]pyridin-2-yl}-3-(3-pyrrolidin-1-ylpropyl)urea] | 0.01 to 0.1 µM | 0.01 to 0.1 µM | 0.01 to 0.1 µM | > 0.1 µM |
| CC1(C)C(=O)N(c2ccc(SC(F)(F)F)cc2)C(=O)N1Cc1ccnc(NC(=O)NC2CCCC2)c1 [Example 19, 1-cyclopentyl-3-{4-[(5,5-dimethyl-2,4-dioxo-3-{4-[(trifluoromethyl)thio]phenyl}imidazolidin-1-yl)methyl]pyridin-2-yl}urea] | 0.01 to 0.1 µM | < 0.01 µM | 0.01 to 0.1 µM | 0.01 to 0.1 µM |
| CC1(C)C(=O)N(c2ccc(SC(F)(F)F)cc2)C(=O)N1Cc1ccnc(NC(=O)NCCN2CCCC2)c1 [Example 20, 1-{4-[(5,5-dimethyl-2,4-dioxo-3-{4-[(trifluoro-methyl)thio]phenyl}imidazolidin-1-yl)methyl]pyridin-2-yl}-3-(2-pyrrolidin-1-ylethyl)urea] | > 0.1 µM | > 0.1 µM | > 0.1 µM | > 0.1 µM |
| CC1(C)C(=O)N(c2ccc(SC(F)(F)F)cc2)C(=O)N1Cc1ccnc(NC(=O)NCCCCN2CCCC2)c1 [Example 21, 1-{4-[(5,5-dimethyl-2,4-dioxo-3-{4-[(trifluoro-methyl)thio]phenyl}imidazolidin-1-yl)methyl]pyridin-2-yl}-3-(4-pyrrolidin-1-ylbutyl)urea] | 0.01 to 0.1 µM | 0.01 to 0.1 µM | 0.01 to 0.1 µM | > 0.1 µM |
| CC1(C)C(=O)N(c2ccc(SC(F)(F)F)cc2)C(=O)N1Cc1ccnc(NC(=O)NC2CC2)c1 [Example 22, 1-cyclopropyl-3-{4-[(5,5-dimethyl-2,4-dioxo-3-{4-[(trifluoromethyl)thio]phenyl}imidazolidin-1-yl)methyl]pyridin-2-yl}urea] | 0.01 to 0.1 µM | 0.01 to 0.1 µM | 0.01 to 0.1 µM | 0.01 to 0.1 µM |
| CC1(C)C(=O)N(c2ccc(SC(F)(F)F)cc2)C(=O)N1Cc1ccnc(NC(=O)NC2CCC2)c1 [Example 23, 1-cyclobutyl-3-{4-[(5,5-dimethyl-2,4-dioxo-3-{4-[(trifluoromethyl)thio]phenyl}imidazolidin-1-yl)methyl]pyridin-2-yl}urea] | 0.01 to 0.1 µM | 0.01 to 0.1 µM | 0.01 to 0.1 µM | 0.01 to 0.1 µM |

Further lines, with some results ahead:

| IC50 [1, 2] | IC50 (IGF-1R in MCF7 cells) | IC50 [1, 3] | SMILES | IC50 (MEF-IGF1R cells) |
| --- | --- | --- | --- | --- |
| 0.01 to 0.1 µM | < 0.01 µM | < 0.01 µM | CN(C)C(=O)c1cccc(Nc2cc(CN3C(=O)N(c4ccc(SC(F)(F)F)cc4)C(=O)C3(C)C)ccn2)c1 [Example 8, 3-({4-[(5,5-dimethyl-2,4-dioxo-3-{4-[(trifluoro-methyl)thio]phenyl}imidazolidin-1-yl)methyl]pyridin-2-yl}amino)-N,N-dimethylbenzamide] | 0.01 to 0.1 µM |
| > 0.1 µM | > 0.1 µM | 0.01 to 0.1 µM | C[C@H](CO)Nc1nccc(CN2C(=O)N(c3ccc(S(=O)(=O)C(F)(F)F)cc3)C(=O)C2(C)C)n1 [Example 9, 1-[(2-{[(1R)-2-hydroxy-1-methylethyl]amino}-pyrimidin-4-yl)methyl]-5,5-dimethyl-3-{4-[(trifluoromethyl)-sulfonyl]phenyl}imidazolidine-2,4-dione] | 0.01 to 0.1 µM |
| 0.01 to 0.1 µM | < 0.01 µM | < 0.01 µM | CC1(C)C(=O)N(c2ccc(SC(F)(F)F)cc2)C(=O)N1Cc1ccnc(Nc2cccnc2)n1 [Example 11, 5,5-dimethyl-1-{[2-(pyridin-3-ylamino)pyrimidin-4-yl]methyl}-3-{4-[(trifluoromethyl)thio]phenyl}imidazolidine-2,4-dione] | < 0.01 µM |
| > 0.1 µM | > 0.1 µM | > 0.1 µM | CC1(C)C(=O)N(c2ccc(SC(F)(F)F)cc2)C(=O)N1Cc1ccnc(Nc2cncnc2)c1 [Example 14, 5,5-dimethyl-1-{[2-(pyrimidin-5-ylamino)pyridin-4-yl]methyl}-3-{4-[(trifluoromethyl)thio]phenyl}imidazolidine-2,4-dione] | > 0.1 µM |
| 0.01 to 0.1 µM | 0.01 to 0.1 µM | 0.01 to 0.1 µM | CC1(C)C(=O)N(c2ccc(SC(F)(F)F)cc2)C(=O)N1Cc1ccnc(Nc2cncnc2)n1 [Example 15, 5,5-dimethyl-1-{[2-(pyrimidin-5-ylamino)pyrimidin-4-yl]methyl}-3-{4-[(trifluoromethyl)thio]phenyl}imidazolidine-2,4-dione] | > 0.1 µM |
| 0.01 to 0.1 µM | 0.01 to 0.1 µM | 0.01 to 0.1 µM | CC1(C)C(=O)N(c2ccc(S(=O)(=O)C(F)(F)F)cc2)C(=O)N1Cc1ccnc(Nc2cncnc2)n1 [Example 16, 5,5-dimethyl-1-{[2-(pyrimidin-5-ylamino)pyrimidin-4-yl]methyl}-3-{4-[(trifluoromethyl)sulfonyl]phenyl}imidazolidine-2,4-dione] | > 0.1 µM |
| 0.01 to 0.1 µM | 0.01 to 0.1 µM | 0.01 to 0.1 µM | CCOC(=O)Nc1cc(CN2C(=O)N(c3ccc(SC(F)(F)F)cc3)C(=O)C2(C)C)ccn1 [Example 18 Stage a), ethyl {4-[(5,5-dimethyl-2,4-dioxo-3-{4-[(trifluoromethyl)thio]phenyl}imidazolidin-1-yl)methyl]pyridin-2-yl}carbamate] | 0.01 to 0.1 µM |
